According to patent publication US20070232615A1, “Chemical Compounds” (priority 2004, published 2007):
pIC50: −log10 of the molar value.

System: HIV
Assay: HOS HIV infectivity assay (Table 2, strain not given)
Assay type: cell-based
Conditions: Human immunodeficiency virus 1, read-out: Activity Level
Procedure: HOS HIV-1 Infectivity Assay
Compounds were profiled against two HIV-1 viruses, the M-tropic (CCR5 utilizing) Ba-L strain and the T-tropic (CXCR4 utilizing) IIIB strain. Both viruses were propagated in human peripheral blood lymphocytes. Compounds were tested for there ability to block infection of the HOS cell line (expressing hCXCR4/hCCR5/hCD4/pHIV-LTR-luciferase) by either HIV-1 Ba-L or HIV-1 IIIB. Compound cytotoxicity was also examined in the absence of virus addition.
HOS HIV-1 Infectivity Assay Format
HOS cells (expressing hCXCR4/hCCR5/hCD4/pHIV-LTR-luciferase) were harvested and diluted in Dulbeccos modified Eagles media supplemented with 2% FCS and non-essential amino acid to a concentration of 60,000 cells/ml. The cells were plated into 96-well plates (100 ul per well) and the plates were placed in a tissue culture incubator (37° C.; 5% CO2/95% air) for a period of 24 h.
Subsequently, 50 ul of the desired drug solution (4 times the final concentration) was added to each well and the plates were returned to the tissue culture incubator (37° C.; 5% CO2/95% air) for 1 h. Following this incubation 50 ul of diluted virus was added to each well (approximately 2 million RLU per well of virus). The plates were returned to the tissue culture incubator (37° C.; 5% CO2/95% air) and were incubated for a further 96 h.
Following this incubation the endpoint for the virally infected cultures was quantified following addition of Steady-Glo Luciferase assay system reagent (Promega, Madison, Wis.). Cell viability or non-infected cultures was measured using a CellTiter-Glo luminescent cell viability assay system (Promega, Madison, Wis.). All luminescent readouts are performed on a Topcount luminescence detector (Packard, Meridien, Conn.).

pIC50	Compound
> 7.00	CC(C)Cc1ccc(CN(Cc2cn3c(N4CCN(C)CC4)cccc3n2)[C@H]2CCCc3cccnc32)cc1 [Example 77, (8S)—N-{[5-(4-Methyl-1-piperazinyl)imidazo[1,2-a]pyridin-2-yl]methyl}-N-{[4-(2-methylpropyl)phenyl]methyl}-5,6,7,8-tetrahydro-8-quinolinamine]
> 7.00	CC(c1cn2c(N3CCN(C)CC3)cccc2n1)N(C)[C@H]1CCCc2cccnc21 (stereo partly drawn) [Example 100, (8S)—N-Methyl-N-{1-[5-(4-methyl-1-piperazinyl)imidazo[1,2-a]pyridin-2-yl]ethyl}-5,6,7,8-tetrahydro-8-quinolinamine]
> 7.00	CN(C)CCNc1cccc2nc(CN(C)[C@H]3CCCc4cccnc43)cn12 [Example 101, N,N-Dimethyl-N′-[2-({methyl[(8S)-5,6,7,8-tetrahydro-8-quinolinyl]amino}methyl)imidazo[1,2-a]pyridin-5-yl]-1,2-ethanediamine]
6.30 to 7.00	FC(F)(F)CN(Cc1cn2c(N3CCNCC3)cccc2n1)C1CCCc2cccnc21 (stereo not shown) [Example 22, N-{[5-(1-piperazinyl)imidazo[1,2-a]pyridin-2-yl]methyl}-N-(2,2,2-trifluoroethyl)-5,6,7,8-tetrahydro-8-quinolinamine]
6.30 to 7.00	CN(C)Cc1ccccc1-c1cccc2nc(CN(C)C3CCCc4cccnc43)cn12 (stereo not shown) [Example 42, N-[(5-{2-[(Dimethylamino)methyl]phenyl}imidazo[1,2-a]pyridin-2-yl)methyl]-N-methyl-5,6,7,8-tetrahydro-8-quinolinamine]
> 7.00	CN1CCN(c2cccc3nc(CN(CCO)[C@H]4CCCc5cccnc54)cn23)CC1 [Example 78, 2-{{[5-(4-Methyl-1-piperazinyl)imidazo[1,2-a]pyridin-2-yl]methyl}[(8S)-5,6,7,8-tetrahydro-8-quinolinyl]amino}ethanol]
> 7.00	CN1CCN(c2cccc3nc(CN(C)C4CCc5cccnc54)cn23)CC1 (stereo not shown) [Example 46, N-Methyl-N-{[5-(4-methyl-1-piperazinyl)imidazo[1,2-a]pyridin-2-yl]methyl}-6,7-dihydro-5H-cyclopenta[b]pyridin-7-amine]
> 7.00	CN1CCN(c2cccc3nc(CN(CCCO)[C@H]4CCCc5cccnc54)cn23)CC1 [Example 79, 3-{{[5-(4-Methyl-1-piperazinyl)imidazo[1,2-a]pyridin-2-yl]methyl}[(8S)-5,6,7,8-tetrahydro-8-quinolinyl]amino}-1-propanol]
> 7.00	CC(C)N(Cc1cn2c(N3CC[C@@H](N(C)C)C3)cccc2n1)[C@H]1CCCc2cccnc21 [Example 98, (8S)—N-({5-[(3R)-3-(Dimethylamino)-1-pyrrolidinyl]imidazo[1,2-a]pyridin-2-yl}methyl)-N-(1-methylethyl)-5,6,7,8-tetrahydro-8-quinolinamine]
> 7.00	CCCCN(Cc1cn2c(N3CCN(C)CC3)cccc2n1)[C@H]1CCCc2cccnc21 [Example 58, (8S)—N-Butyl-N-{[5-(4-methyl-1-piperazinyl)imidazo[1,2-a]pyridin-2-yl]methyl}-5,6,7,8-tetrahydro-8-quinolinamine]
> 7.00	CN1CCC(N(C)c2cccc3nc(CN(C)C4CCCc5cccnc54)cn23)C1 (stereo not shown) [Example 29, N-Methyl-N-({5-[methyl(1-methyl-3-pyrrolidinyl)amino]imidazo[1,2-a]pyridin-2-yl}methyl)-5,6,7,8-tetrahydro-8-quinolinamine]
> 7.00	CN(Cc1cn2c(N3CC[C@H](N(C)C)C3)cccc2n1)C1CCCc2cccnc21 (stereo partly drawn) [Example 24, N-({5-[(3S)-3-(Dimethylamino)-1-pyrrolidinyl]imidazo[1,2-a]pyridin-2-yl}methyl)-N-methyl-5,6,7,8-tetrahydro-8-quinolinamine]

Compound	pIC50
CN1CCC(N(C)c2cccc3nc(CN(C)C4CCCc5cccnc54)cn23)CC1 (stereo not shown) [Example 28, N-Methyl-N-({5-[methyl(1-methyl-4-piperidinyl)amino]imidazo[1,2-a]pyridin-2-yl}methyl)-5,6,7,8-tetrahydro-8-quinolinamine]	6.30 to 7.00
